The values that follow come from ChEMBL document CHEMBL1131163 (J Med Chem, 1998).

The term Ki denotes a measure of affinity in units of concentration, obtained from inhibition or displacement. High values mean a looser hold on the target, low ones a stronger hold on the target.

This test has as its target D(2) dopamine receptor (Rattus norvegicus) (UniProt P61169).

The structures appear in SMILES notation.

Chain of D(2) dopamine receptor (Rattus norvegicus) (P61169 whole entry, looked up): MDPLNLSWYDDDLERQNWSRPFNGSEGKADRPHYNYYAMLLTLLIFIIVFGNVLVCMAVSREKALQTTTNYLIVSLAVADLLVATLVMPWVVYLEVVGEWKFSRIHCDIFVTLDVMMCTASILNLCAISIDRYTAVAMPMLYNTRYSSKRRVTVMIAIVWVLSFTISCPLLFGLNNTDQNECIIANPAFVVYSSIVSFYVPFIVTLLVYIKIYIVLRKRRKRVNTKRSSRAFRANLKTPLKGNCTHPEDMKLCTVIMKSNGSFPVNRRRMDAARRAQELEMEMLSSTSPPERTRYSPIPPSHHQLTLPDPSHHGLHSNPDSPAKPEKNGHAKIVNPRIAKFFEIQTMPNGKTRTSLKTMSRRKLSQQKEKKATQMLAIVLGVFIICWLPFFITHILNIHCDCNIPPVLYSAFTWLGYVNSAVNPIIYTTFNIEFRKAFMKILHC

The molecule `CN1C[C@H](C(N)=O)C=C2c3cccc4[nH]c(Br)c(c34)C[C@H]21` showed a Ki of 2 nM.
